{
  "source": "patent US5635391A",
  "about": "“Isolated DNA encoding a nitrilase polypeptide, hosts containing, and expression thereof optionally assisted by a E. coli GroE chaperone polypeptide” (priority 1992, dated 1997)",
  "system": "Comamonas testosteroni sp.",
  "assay": "Enzymatic activity of Comamonas testosteroni sp. cells on adiponitrile",
  "format": "cell-based",
  "conditions": "52.3 mM adiponitrile, pH 7, 25° C.; 1 U = 1 μmol of product formed per minute",
  "experimental": "A cellular residue containing 13.1 mg of dry weight of cells was suspended in 2 ml of a 52.3 mM solution of adiponitrile in 50 mM potassium phosphate buffer, pH 7. The reaction was carried out at 25° C., with shaking, and the kinetics were followed by sampling. 5-Cyanovaleramide, adipamide, 5-cyanovalerate, adipamate and adipate were determined on each sample by high performance liquid chromatography (HPLC). […] The respective rates of formation of cyanovalerate and adipate were greater than 0.45 and equal to 0.15 U/mg of dry weight of cells (1 U is equal to 1 μmol of product formed per minute).",
  "data": [
    {"smiles": "N#CCCCCC#N", "note": "[Adiponitrile, adiponitrile]", "values": [
      {"measurement": "rate of formation of adipate", "result": "0.15 U/mg of dry weight of cells"},
      {"measurement": "rate of formation of cyanovalerate", "result": "greater than 0.45 U/mg of dry weight of cells"}
    ]}
  ]
}
